Assay results taken from US11471537B2, “Oligomer extended insulin-Fc conjugates” (Novo Nordisk A/S, priority 2017, dated 2022).
Values joined by “and” are separate entries in the source; they are usually repeats but may differ in a detail not shown here. Equal values may be shown once.

What was measured:
[1] = test system: Sprague-Dawley rats; test: PD studies: blood glucose after subcutaneous dosing; assay type: in vivo; settings: sc, dose 30 nmol/kg
Procedure: The pharmacodynamic effect of the Insulin Fc conjugates of the examples were investigated in normal male Sprague-Dawley rats weighing approx. 350 g at study start.
Animals had free access to food and water during the experiment period. They were dosed subcutaneously in the neck region with a dose of 30 nmol/kg (unless otherwise stated in the figures below). Blood samples for blood glucose and plasma insulin analysis were collected from the tongue veins up to 10 days post dosing. Blood glucose was measured using Biosen S Line (EKF).

[2] = PK studies: intravenous and subcutaneous administration to SD rats, insulin-Fc concentrations by immuno-assay; assay type: in vivo; settings: for PK rat sc [T½ (h)] Mean Value: subcutaneous
Procedure: Insulin-Fc conjugates were tested in vivo by intravenous and subcutaneous administration to SD rats. Blood samples were collected and the insulin-Fc concentrations were measured by immuno-assay.

[3] = test system: isolated rat adipocytes; test: Insulin-stimulated lipogenesis; assay type: cell-based; settings: 1% HSA; relative to the activity of human insulin (100%)
Procedure: Insulin-stimulated lipogenesis was measured in isolated rat adipocytes in presence of 1% HSA as described in Moody A J, Stan M A, Stan M, Gliemann J. A Simple Free Fat Cell Bioassay for Insulin. Hormone And Metabolic Research. 1974; 6(1):12-6, see results in Table 6.

[4] = target: insulin receptor A (Homo sapiens, UniProt P06213); test: Insulin receptor affinity; assay type: binding; settings: relative to affinity of human insulin for insulin receptor A (100%)
insulin receptor A, sequence (P06213 28-1370 isoform P06213-2 limits assumed): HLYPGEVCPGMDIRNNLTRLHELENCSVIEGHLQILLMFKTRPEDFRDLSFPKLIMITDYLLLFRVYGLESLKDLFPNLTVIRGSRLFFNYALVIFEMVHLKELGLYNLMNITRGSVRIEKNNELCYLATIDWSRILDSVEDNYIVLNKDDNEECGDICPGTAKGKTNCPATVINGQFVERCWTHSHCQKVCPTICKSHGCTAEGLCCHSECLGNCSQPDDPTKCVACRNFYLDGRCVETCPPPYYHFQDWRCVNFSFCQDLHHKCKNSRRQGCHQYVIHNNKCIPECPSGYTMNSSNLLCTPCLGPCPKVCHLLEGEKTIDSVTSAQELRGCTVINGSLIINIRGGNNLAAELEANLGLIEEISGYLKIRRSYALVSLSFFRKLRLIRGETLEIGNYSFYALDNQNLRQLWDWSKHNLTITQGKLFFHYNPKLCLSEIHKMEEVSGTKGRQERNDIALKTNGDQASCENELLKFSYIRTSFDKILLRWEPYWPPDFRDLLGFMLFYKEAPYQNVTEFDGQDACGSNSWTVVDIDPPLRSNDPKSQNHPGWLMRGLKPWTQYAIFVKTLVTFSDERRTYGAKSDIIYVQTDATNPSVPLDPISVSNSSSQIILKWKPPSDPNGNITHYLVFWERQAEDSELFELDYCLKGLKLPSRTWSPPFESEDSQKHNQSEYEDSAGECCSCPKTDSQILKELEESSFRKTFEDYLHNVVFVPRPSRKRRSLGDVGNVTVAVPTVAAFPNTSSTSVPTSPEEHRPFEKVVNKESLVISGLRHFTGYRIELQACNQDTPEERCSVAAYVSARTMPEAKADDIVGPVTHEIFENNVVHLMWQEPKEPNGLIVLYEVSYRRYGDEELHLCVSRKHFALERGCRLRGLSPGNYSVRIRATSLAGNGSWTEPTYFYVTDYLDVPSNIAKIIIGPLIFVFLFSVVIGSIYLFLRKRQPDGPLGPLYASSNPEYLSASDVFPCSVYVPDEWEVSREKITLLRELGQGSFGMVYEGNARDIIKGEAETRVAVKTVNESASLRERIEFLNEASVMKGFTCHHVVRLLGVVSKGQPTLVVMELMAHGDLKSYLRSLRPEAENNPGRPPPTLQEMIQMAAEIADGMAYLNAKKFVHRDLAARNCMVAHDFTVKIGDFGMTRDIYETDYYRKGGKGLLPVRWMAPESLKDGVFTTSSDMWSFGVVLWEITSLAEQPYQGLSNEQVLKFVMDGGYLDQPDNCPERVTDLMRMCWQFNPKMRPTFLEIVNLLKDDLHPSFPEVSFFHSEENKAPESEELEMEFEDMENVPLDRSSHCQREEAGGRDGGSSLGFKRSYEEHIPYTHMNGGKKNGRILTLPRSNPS
insulin receptor A, sequence (P06213 763-1382 partner limits assumed): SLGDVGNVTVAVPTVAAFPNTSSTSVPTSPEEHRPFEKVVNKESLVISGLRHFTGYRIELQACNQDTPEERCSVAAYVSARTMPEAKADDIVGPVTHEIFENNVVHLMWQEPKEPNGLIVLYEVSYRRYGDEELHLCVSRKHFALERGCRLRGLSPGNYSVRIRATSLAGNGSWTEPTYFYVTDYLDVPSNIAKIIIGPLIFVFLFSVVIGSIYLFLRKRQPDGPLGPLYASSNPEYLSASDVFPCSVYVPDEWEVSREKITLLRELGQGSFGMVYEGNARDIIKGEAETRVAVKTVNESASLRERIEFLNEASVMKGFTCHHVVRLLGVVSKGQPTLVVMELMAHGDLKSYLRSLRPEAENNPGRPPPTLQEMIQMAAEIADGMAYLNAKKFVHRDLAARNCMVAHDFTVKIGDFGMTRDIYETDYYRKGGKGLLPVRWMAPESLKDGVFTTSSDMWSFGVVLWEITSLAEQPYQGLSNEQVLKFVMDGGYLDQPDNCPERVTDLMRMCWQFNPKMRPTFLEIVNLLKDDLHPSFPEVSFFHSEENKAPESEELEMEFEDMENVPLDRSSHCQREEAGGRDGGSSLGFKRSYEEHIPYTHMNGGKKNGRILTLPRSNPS

| Insulin receptor affinity [IC50 relative to HI (%)] Mean Value [4] [%] | Substance | Average blood glucose ([1]; time 0 days) [mM] | Average blood glucose ([1]; time 0.041667 days) [mM] | Average blood glucose ([1]; time 0.125 days) [mM] | Average blood glucose ([1]; time 0.291667 days) [mM] | Average blood glucose ([1]; time 1 day) [mM] | Average blood glucose ([1]; time 2 days) [mM] | Average blood glucose ([1]; time 3 days) [mM] | Average blood glucose ([1]; time 4 days) [mM] | Average blood glucose ([1]; time 6 days) [mM] | Average blood glucose ([1]; time 7 days) [mM] | Average blood glucose ([1]; time 8 days) [mM] | PK rat iv [T½ (h)] Mean Value [2] [h] | PK rat sc [T½ (h)] Mean Value [2] [h] | Lipogenesis in rat adipocytes [Potency (%)] Mean Value [3] [%] | Average blood glucose ([1]; time 9 days) [mM] | Average blood glucose ([1]; time 10 days) [mM] | also measured |
| --- | --- | --- | --- | --- | --- | --- | --- | --- | --- | --- | --- | --- | --- | --- | --- | --- | --- | --- |
| 3.86 | (A14E, A21G, A22(GQAP)19, A98K^, A99P, B25H, B29R, desB30 human insulin)/(227A, 234A, 235K, 297E, 315Q, 384Q, des447 hIgG4-Fc(228-447))6-[bis[2-[(2-acetyl)amino]ethyl]amino]-6-oxo-hexanoyl conjugate [Example 5.16] | 6.544 | 5.972 | 4.74 | 4.028 | 2.42 | 2.592 | 3.156 | 5.7 | 5.784 | 5.848 | 5.72 | 25.7 | 36.2 | 4.34 | – | – | – |
| 5.37 | A14E, A21G, A22(GQAPGQEP)6, A70K^, A71P, B25H, B29R, desB30 human insulin/(227A, 234A, 235K, 297E, 315Q, 384Q, des447 hIgG4-Fc(228-447))4-[bis[2-[(2-acetyl)amino]ethyl]amino]-4-oxo-butanoyl Conjugate [Example 5.14] | 6.248 | 5.32 | 4.08 | 3.048 | 2.356 | 2.4 | 2.832 | 4.304 | 6.032 | 6.076 | 5.5 | 46.6 | 54.0 | 4.86 | – | – | – |
| 4.70 | (A14E, A21G, A22(GQAP)24, A118G, A119Q, A120A, A121K^, A122P, B25H, B29R, desB30 human insulin)/(227A, 234A, 235K, 297E, 315Q, 384Q, des447 hIgG4-Fc(228-447))4-[bis[2-[(2-acetyl)amino]ethyl]amino]-4-oxo-butanoyl Conjugate [Example 5.23] | 5.384 | 5.768 | 4.808 | 4.136 | 2.86 | 2.6 | 3.536 | 5.544 | 5.796 | 6.056 | 5.672 | 57.1 | 73.2 | 5.36 | 5.62 | 6.308 | Average blood glucose ([1]; time 5 days): 5.684 mM |
| 1.85 | (A14E, A21G, A22(GQEP)19, A98K^, A99P, B25H, B29R, desB30 human insulin)/(227A, 234A, 235K, 297E, 315Q, 384Q, des447 hIgG4-Fc(228-447))4-[bis[2-[(2-acetyl)amino]ethyl]amino]-4-oxo-butanoyl Conjugate [Example 5.12] | – | – | – | – | – | – | – | – | – | – | – | 23.3 | 25.1 | 2.35 | 5.204 | 5.556 | Average blood glucose ([1]; time 0 days, listed as Ex 5.12): 5.816 mM and 5.516 mM; Average blood glucose ([1]; time 0.041667 days, listed as Ex 5.12): 5.598 mM and 6.16 mM; Average blood glucose ([1]; time 0.125 days, listed as Ex 5.12): 5.674 mM and 4.608 mM; Average blood glucose ([1]; time 0.208333 days): 5.338 mM; Average blood glucose ([1]; time 0.291667 days, listed as Ex 5.12): 4.598 mM and 3.988 mM; Average blood glucose ([1]; time 1 day, listed as Ex 5.12): 2.986 mM and 2.88 mM; Average blood glucose ([1]; time 2 days, listed as Ex 5.12): 2.524 mM and 2.348 mM; Average blood glucose ([1]; time 3 days, listed as Ex 5.12): 2.576 mM and 2.972 mM; Average blood glucose ([1]; time 4 days, listed as Ex 5.12): 3.284 mM and 6.028 mM; Average blood glucose ([1]; time 5 days, listed as Ex 5.12): 6.884 mM and 6.06 mM; Average blood glucose ([1]; time 6 days, listed as Ex 5.12): 6.506 mM and 5.74 mM; Average blood glucose ([1]; time 7 days, listed as Ex 5.12): 6.202 mM and 5.716 mM; Average blood glucose ([1]; time 8 days, listed as Ex 5.12): 6.046 mM and 5.568 mM |
| 3.95 | (A14E, A21G, A22(GQAP)18, A94G, A95Q, A96A, A97K^, A98P, B29R, desB30 human insulin)/(227A, 234A, 235K, 297E, 315Q, 384Q, des447 hIgG4-Fc(228-447))4-[bis[2-[(2-acetyl)amino]ethyl]amino]-4-oxo-butanoyl Conjugate [Example 5.26] | 5.82 | 5.984 | 5.3 | 4.384 | 3.332 | 4.992 | 6.352 | 5.804 | 6.232 | 6.048 | 6.236 | 49.8 | 53.5 | 3.23 | 5.972 | 5.88 | Average blood glucose ([1]; time 5 days): 5.752 mM |
| 3.98 | A14E, A21G, A22(GQEP)12, A70K^, A71P, B25H, B29R, desB30 human insulin/(227A, 234A, 235K, 297E, 315Q, 384Q, des447 hIgG4-Fc(228-447))4-[bis[2-[(2-acetyl)amino]ethyl]amino]-4-oxo-butanoyl Conjugate [Example 5.17] | 6.372 | 5.84 | 5.14 | 3.672 | 2.6 | 2.704 | 2.772 | 5.232 | 5.88 | 5.908 | 5.656 | 46.2 | 40.3 | 4.39 | – | – | – |
| 4.00 | A14E, A21G, A22(GQAPGQAPGQEP)6-GQAP, A98K^, A99P, B29R, desB30 human insulin/(227A, 234A, 235K, 297E, 315Q, 384Q, des447 hIgG4-Fc(228-447))4-[bis[2-[(2-acetyl)amino]ethyl]amino]-4-oxo-butanoyl Conjugate [Example 5.19] | 6.4 | 5.988 | 4.92 | 3.84 | 2.632 | 2.62 | 4.312 | 6.104 | 5.9 | 6.128 | 5.512 | 30.8 | 55.0 | 3.02 | – | – | – |
| 1.72 | A14E, B(−78K^), B(−77P), B(−1)(GQEP)19, B25H, B29R, desB30 human insulin/(227A, 234A, 235K, 297E, 315Q, 384Q, des447 hIgG4-Fc(228-447))4-[bis[2-[(2-acetyl)amino]ethyl]amino]-4-oxo-butanoyl Conjugate [Example 5.11] | – | – | – | – | – | – | – | – | – | – | – | 30.7 | 33.1 | 0.39 | – | – | – |
